Measured values taken from article PMC6309379 (Journal of medicinal chemistry, 2018).

Assays:
MOLM13 cells = assay: Cell cycle study, propidium iodide staining; format: cell-based, human; settings: MOLM13, 1 μM, 24 h
BRD4-BD1 = BRD4-BD1 (Homo sapiens, UniProt O60885); assay: BROMOscan; format: binding; settings: 1 uM, control DMSO
PLK kinases (PLK1–3) = assay: KINOMEscan; format: binding; settings: 1 uM, control DMSO

Row | BRD4-BD1 % of control (BRD4-BD1) | PLK kinases % of control (PLK kinases (PLK1–3)) | SMILES | cell cycle arrest (MOLM13 cells)
1 | – | – | CC[C@@H]1C(=O)N(C)c2cnc(Nc3ccc(C(=O)NC4CCN(C)CC4)cc3OC)nc2N1C1CCCC1 [BI-2536, reference compound] | G1/G2 arrest
2 | 12 % of control | 0.3–0.5 % of control | COc1cc(C(=O)NC2CCN(C)CC2)ccc1Nc1ncc2c(n1)N(C1CCCC1)[C@H](C)C(=O)N2C [Compound 5, (R)-4-((8-cyclopentyl-5,7-dimethyl-6-oxo-5,6,7,8-tetrahydropteridin-2-yl)amino)-3-methoxy-N-(1-methylpiperidin-4-yl)benzamide] | –
3 | – | – | C[C@@H]1C(=O)N(C)c2cnc(Nc3ccc(C(=O)NC4CCN(C)CC4)cc3OC3CCCC3)nc2N1C1CCCC1 [Compound 23, (R)-4-((8-cyclopentyl-5,7-dimethyl-6-oxo-5,6,7,8-tetrahydropteridin-2-yl)amino)-3-(cyclopentyloxy)-N-(1-methylpiperidin-4-yl)benzamide] | cell cycle arrest in the G1/G2 stage of the cell cycle
